# Measurements: patent US9113629B2, “4-amino-6-(4-substituted-phenyl)-picolinates and 6-amino-2-(4-substituted-phenyl)-pyrimidine-4-carboxylates and their use as herbicides” (DOW AGROSCIENCES LLC, priority 2013, dated 2015)
# Read-outs that look alike come from different tables or passages of the source.
# Experiments:
# [1] = tested on: Key Broadleaf Weed and Crop Species; assay: Post-emergent Test II herbicidal activity (Table 5); format: in vivo; conditions: post-emergence, 336 h, post-emergent, 14 days after application; for pest or weed control at 66 g/ha: 66 g ai/ha; for pest or weed control at 132 g/ha: 132 g ai/ha
# In short: (§1)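 Injury was rated visually 14 d after treatment on a 0–100% scale against untreated controls. Test compounds, formulated with crop oil concentrate and surfactant and serially diluted down to 1/16× of the top rate, were applied by track sprayer at 187 L/ha onto first- to second-true-leaf seedlings.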
# [2] = tested on: Key Grass and Sedge Weeds as well as Grass Crops; assay: Post-emergent Test II herbicidal activity (Table 6); format: in vivo; conditions: post-emergence, 336 h; for pest or weed control at 66 g/ha: application rate 66 g ai/ha; for pest or weed control at 132 g/ha: application rate 132 g ai/ha
# In short: as §1
# [3] = ABUTH: velvetleaf (Abutilon theophrasti), read-out: Visual Growth Reduction (%) 14 Days After Application ABUTH
# [4] = AMARE: redroot pigweed (Amaranthus retroflexus), read-out: Visual Growth Reduction (%) 14 Days After Application AMARE
# [5] = BRSNN: oilseed-rape, canola (Brassica napus), read-out: Visual Growth Reduction (%) 14 Days After Application BRSNN
# [6] = CHEAL: lambsquarters (Chenopodium album), read-out: Visual Growth Reduction (%) 14 Days After Application CHEAL
# [7] = EPHHL: wild poinsettia (Euphorbia heterophylla), read-out: Visual Growth Reduction (%) 14 Days After Application EPHHL
# [8] = HELAN: sunflower (Helianthus annuus), read-out: Visual Growth Reduction (%) 14 Days After Application HELAN
# [9] = VIOTR: wild pansy (Viola tricolor), read-out: Visual Growth Reduction (%) 14 Days After Application VIOTR
# [10] = Triticum aestivum, TRZSS (wheat), read-out: Visual Growth Reduction (%) 14 Days After Application, TRZSS
# [11] = CYPES: yellow nutsedge (Cyperus esculentus), read-out: Visual Growth Reduction (%) 14 Days After Application, CYPES
# [12] = DIGSA: crabgrass (Digitaria sanguinalis), read-out: Visual Growth Reduction (%) 14 Days After Application, DIGSA
# [13] = ECHCG: barnyardgrass (Echinochloa crus-galli), read-out: Visual Growth Reduction (%) 14 Days After Application, ECHCG
# [14] = ORYSA: rice (Oryza sativa), read-out: Visual Growth Reduction (%) 14 Days After Application, ORYSA
# [15] = SETFA: giant foxtail (Setaria faberi), read-out: Visual Growth Reduction (%) 14 Days After Application, SETFA
# [16] = SORVU: grain sorghum (Sorghum vulgare), read-out: Visual Growth Reduction (%) 14 Days After Application, SORVU
# [17] = ZEAMX: maize, corn (Zea mays), read-out: Visual Growth Reduction (%) 14 Days After Application, ZEAMX
smiles,measurement,setting,value
"COC(=O)c1nc(-c2ccc(I)c(F)c2)c(C)c(N)c1Cl [Compound 79, Methyl 4-amino-3-chloro-6-(3-fluoro-4-iodophenyl)-5-methylpicolinate]",pest or weed control at 66 g/ha,[1]; [3],85 to 94%
same,pest or weed control at 132 g/ha,[1]; [3],95 to 100%
same,pest or weed control at 66 g/ha,[1]; [4],60 to 74%
same,pest or weed control at 132 g/ha,[1]; [4],75 to 84%
same,pest or weed control at 66 g/ha,[1]; [5],85 to 94%
same,pest or weed control at 132 g/ha,[1]; [5],85 to 94%
same,pest or weed control at 66 g/ha,[1]; [6],95 to 100%
same,pest or weed control at 132 g/ha,[1]; [6],95 to 100%
same,pest or weed control at 66 g/ha,[1]; [7],0 to 29%
same,pest or weed control at 132 g/ha,[1]; [7],0 to 29%
same,pest or weed control at 66 g/ha,[1]; [8],95 to 100%
same,pest or weed control at 132 g/ha,[1]; [8],95 to 100%
same,pest or weed control at 66 g/ha,[1]; [9],0 to 29%
same,pest or weed control at 132 g/ha,[1]; [9],0 to 29%
same,pest or weed control at 66 g/ha,[2]; [10],0 to 29%
same,pest or weed control at 132 g/ha,[2]; [10],30 to 44%
same,pest or weed control at 66 g/ha,[2]; [11],95 to 100%
same,pest or weed control at 132 g/ha,[2]; [11],95 to 100%
same,pest or weed control at 66 g/ha,[2]; [12],60 to 74%
same,pest or weed control at 132 g/ha,[2]; [12],60 to 74%
same,pest or weed control at 66 g/ha,[2]; [13],60 to 74%
same,pest or weed control at 132 g/ha,[2]; [13],60 to 74%
same,pest or weed control at 66 g/ha,[2]; [14],0 to 29%
same,pest or weed control at 132 g/ha,[2]; [14],0 to 29%
same,pest or weed control at 66 g/ha,[2]; [15],75 to 84%
same,pest or weed control at 132 g/ha,[2]; [15],75 to 84%
same,pest or weed control at 66 g/ha,[2]; [16],60 to 74%
same,pest or weed control at 132 g/ha,[2]; [16],75 to 84%
same,pest or weed control at 66 g/ha,[2]; [17],60 to 74%
same,pest or weed control at 132 g/ha,[2]; [17],60 to 74%
